This is an account of results in patent US5973006A, “Fluoro-substituted benzoylpropionic acid derivatives” (Pharmacia & Upjohn S.p.A., priority 1995, dated 1999).

Structures are written as SMILES. pIC50: −log10 of the molar value. Where a name gives a salt, the structure may show the parent alone.

The nature of series [1]: Solubility in water at the indicated pH. In kind it is physicochemical. An excerpt: The following Table 2 reports the solubility in water at the indicated pH of a representative compound of the invention (R,S)-2-amino-4-(3',4'-difluorophenyl)-4-oxo-2-butanoic acid hydrochloride (PNU 156830) in comparison with the known reference compound of WO 95/03271: (R,S)-2-amino-4-(3',4'-dichlorophenyl)-4-oxo-butanoic acid hydrochloride (internal code: PNU 156561).

Series [2] addresses T1, kynurenine-3-hydroxylase (Rattus norvegicus, UniProt O88867). Description: Kynurenine-3-hydroxylase assay in the rat liver (mitochondrial extract). It is filed as biochemical. On the set-up: Rat liver mitochondrial extract was used as enzymatic preparation for this assay; from tissue; host or cells: rat liver mitochondrial extract. The settings on record: 0.025 mM L-kynurenine, 37° C., 30 min, read-out: Enzyme Inhibition (Liver) IC50. The protocol:
Kynurenine-3-hydroxylase Assay in the Rat Liver
The assay for kynurenine 3-hydroxylase was based on the enzymatic synthesis of tritiated water during the hydroxylation reaction. Radiolabeled water was quantified following selective adsorption of the isotopic substrate and its metabolite with activated charcoal.
Rat liver mitochondrial extract was used as enzymatic preparation for this assay.
The assay for kynurenine 3-hydroxylase activity was carried out at 37° C. for a time of 30 min. The reaction mixture of a total volume of […] was constituted of […] of suspended extract, 100 mM Tris/Cl buffer pH 8.1, 10 mM EDTA, 100 mM KCl, 0.8 mM NADPH, 0.025 mM L-kynurenine, […] L-(3,5-^3 H)Kynurenine (10 Ci/mmol) and […] of different concentration of inhibitor solutions. After the incubation the reaction was terminated by the addition of 1 mL of 7.5% (w/v) activated charcoal, vortexed and centrifugated for 7 min.
A […] aliquot of supernatant was counted by scintillation spectroscopy in 5 ml of liquid scintillation.

Series [3] concerns the target T1, kynurenine-3-hydroxylase. Description: Kynurenine-3-hydroxylase assay in the rat brain. The following applies: rat brain homogenate, 50 μM L-kynurenine, 60 min; read-out: Enzyme Inhibition (Brain) IC50. Also noted: from tissue. In kind it is biochemical. Here is the method:
Kynurenine-3-hydroxylase Assay in the Rat Brain
Brain was homogenized in ice-cold 0.32 M sucrose and centrifuged at 12000×g for 30 min at 4° C. The pellet was washed three times with 0.32 M sucrose by centrifugation and suspended in 0.14 M KCl in 20 mM K-phosphate buffer at pH 7 (1 g tissue in 2 ml buffer). The reaction mixture contained: 75 μl of suspended homogenate; 100 μl of substrate solution containing 50 mM K-phosphate buffer pH 7.5, 2 MM MgCl2, 0.4 mM NADPH, and 50 μM L-kynurenine (final concentration),and 25 μl of different concentrations of inhibitor solutions. The reaction was stopped by addition of 200 μl of 1 M HClO4 after 60 min incubation. L-3-hydroxykynurenine formed was quantified by HPLC with coulometric detection at a working voltage of +0.2 V. The column was a 10 cm C18 reversed phase (3 μm. The mobile phase consisted of 950 ml distilled water, 20 ml acetonitrile, 9 ml triethylamine, 5.9 ml phosphoric acid, 100 mg sodium EDTA and 1.5 g heptanesulfonic acid. The flow rate was 1 ml/min.

T1 sequence (O88867 whole entry): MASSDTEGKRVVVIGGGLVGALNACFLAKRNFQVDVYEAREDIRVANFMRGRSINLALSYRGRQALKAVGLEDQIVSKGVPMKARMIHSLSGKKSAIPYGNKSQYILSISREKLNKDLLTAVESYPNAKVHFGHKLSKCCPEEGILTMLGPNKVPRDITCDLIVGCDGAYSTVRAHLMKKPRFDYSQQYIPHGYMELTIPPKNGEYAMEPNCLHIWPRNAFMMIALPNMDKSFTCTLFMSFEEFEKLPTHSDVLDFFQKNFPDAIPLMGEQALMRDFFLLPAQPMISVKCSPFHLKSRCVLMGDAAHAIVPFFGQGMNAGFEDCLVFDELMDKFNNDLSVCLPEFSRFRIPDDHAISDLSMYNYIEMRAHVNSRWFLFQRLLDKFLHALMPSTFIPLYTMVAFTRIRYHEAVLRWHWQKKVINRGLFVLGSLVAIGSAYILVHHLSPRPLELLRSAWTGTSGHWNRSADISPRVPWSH

Take `NC(CC(=O)c1ccc(Cl)c(Cl)c1)C(=O)O` (racemic) [PNU 156561, (R,S)-2-amino-4-(3',4'-dichlorophenyl)-4-oxo-butanoic acid hydrochloride, reference compound]: the solubility (commonly the concentration that dissolves in the medium under given conditions) turned out to be 0.2 mg/mL in series [1] (pH = 7.4) and 15 mg/mL in series [1] (pH = 8).

For `NC(CC(=O)c1ccc(F)c(F)c1)C(=O)O` (racemic) [PNU 156830, (R,S)-2-amino-4-(3',4'-difluorophenyl)-4-oxo-2-butanoic acid hydrochloride], the solubility was 38 mg/mL in series [1] (pH = 3), 18 mg/mL in series [1] (pH = 7.4) and 36 mg/mL in series [1] (pH = 8). The pIC50 (commonly −log10 of the IC50, conventionally taken in molar units) at kynurenine-3-hydroxylase [2] was 6.38; at kynurenine-3-hydroxylase [3] it was 6.92.

Regarding `N[C@H](CC(=O)c1ccc(F)c(F)c1)C(=O)O` [PNU 158392, (R)-2-amino-4-(3',4'-difluorophenyl)-4-oxo-2-butanoic acid hydrochloride], the pIC50 at kynurenine-3-hydroxylase [2] was 4.96.

Regarding `N[C@@H](CC(=O)c1ccc(F)c(F)c1)C(=O)O` [PNU 158393, (S)-2-amino-4-(3',4'-difluorophenyl)-4-oxo-2-butanoic acid hydrochloride], the pIC50 at kynurenine-3-hydroxylase [2] is 6.66.
